Entries after “also recorded” stand apart in the source; their conditions may differ.
Key:
[1] = target: T1, cGMP binding sites of GST-cGB-PDE5 fusion protein (Homo sapiens, UniProt O76074); test: cGMP binding assay; conditions: 3H-cGMP 2 μM
T1 construct: made in house; host or cells: E. coli BL21 (DE3)

[2] = tested on: Peak B from SW480, HTB-26, and LnCAP; test: Peak B cGMP PDE activity from SW480, HTB-26 and LnCAP (FPLC); format: biochemical; conditions: 100 nM; Peak B from SW480, HTB-26, LnCAP
Experimental: The novel Peak B was also isolated from two other neoplastic cell lines, a breast cancer cell line, HTB-26, and a prostate cancer cell line, LnCAP, by a procedure similar to the one above used to isolate it from SW480. The protocol was modified in several respects. To provide even greater reproducibility to allow comparison of different cell lines, a Pharmacia AKTA FPLC was used to control sample loading and elution on an 18 mL DEAE TrisAcryl M column. SW840 was run by this same procedure multiple times to provide a reference of Peak B. 200-400 million cells of SW480 were used for the profiles. 70 million cells of LnCAP were used for a profile (see FIGS. 22 and 23), and in a separate experiment 32 million cells of HTB-26 were used for a profile (see FIGS. 20 and 21). After re-suspending cells in homogenization buffer, samples were manually homogenized. FPLC buffer A was 8 mM TRIS-acetate, 5 mM Mg acetate, 0.1 mM EDTA, pH 7.5 and buffer B was 8 mM TRIS-acetate, 5 mM Mg acetate, 0.1 mM EDTA, 1 M Na acetate, pH 7.5. Supernatants were loaded onto the column at 1 mL per minute, followed by a wash with 60 mL buffer A at 1 mL per minute. A gradient was run from 0-15% buffer B in 60 mL, 15-50% buffer B in 60 mL, and 50-100% buffer B in 16 mL. During the gradient 1.5 mL fractions were collected.

[3] = tested on: LNCaP prostate tumor cell line; test: Histone-associated DNA fragmentation in prostate tumor cells; format: cell-based; conditions: 50 μM, up to 4 days, free base
Experimental: The androgen-sensitive prostate tumor cell line, LNCaP (from ATCC (Rockville, Md.)) was propagated under standard conditions using […] medium containing 5% fetal calve serum and 2 mM glutamine. Primary prostate epithelial cell cultures (PrEC) derived from normal prostate (from Clonetics Inc. (San Diego, Calif.)) were grown under the same conditions as the tumor cell line except a serum-free medium optimized for the growth of such cultures was used (Clonetics Inc). For the experiments, LNCaP or PrEC cells were seeded in 96 well plates at a density of 10,000 cells per well. […] After various drug treatment times (4, 24, 48, 72, or 99 hours) the cells were lysed and processed for measurement of histone-associated DNA as an indicator of apoptotic cell death (see, Piazza et al., Cancer Research 57: 2452-2459, 1997).

[4] = Toxicity study in dogs (capsules); format: in vivo
[5] = tested on: H460 large cell carcinoma cell line; test: Cell growth, alone and in combination with vinca alkaloid; format: cell-based, human
Experimental: (§1) Exisulind and Compound I were analyzed using two human lung cancer cell lines; H460, a large cell carcinoma with a doubling time of 16 hours, and Calu-6, an adenocarcinoma with a doubling time of 21 hours. Exisulind and Compound I were analyzed alone and in combination with the vinca alkaloid, Navelbine™ vinorelbine. The cytotoxic agents were administered for 1 hour, while exisulind and Compound I were administered for either 1 hour or given as a continuous exposure.
(§2) Cells were plated on day 0 and allowed to attach. On day 1, the cells were exposed to one of the cytotoxic agents dissolved in media pre-warmed to 37° C. and incubated at 37° C. for 1 hour. The cells were then washed twice and re-fed pre-warned media with or without either exisulind or Compound I and incubated for one hour at 37° C. After the one-hour incubation, the cells were washed twice, re-fed, and returned to the incubator; the continuous exposure cultures were not washed and re-fed. Appropriate controls were included for each condition. […] All data points were done in triplicate and the mean graphed as a percent of control growth.
(§3) Exisulind and Compound I were first dissolved in DMSO and brought to the desired concentrations by slowly adding warm media to the drug-DMSO solution to prevent precipitation.

[6] = tested on: Calu-6 adenocarcinoma cell line; test: as above; format: cell-based, human; conditions: for Lower concentration required on continuous exposure than 1-hour exposure for same effect: FIGS. 28-29, 32-33; for Effect when combined with vinca alkaloid: both cell lines (Calu-6, H460), 1-hour and continuous exposures
Experimental: as §1, §2, §3

[7] = rat, in vivo, 2000 mg/kg/day
[8] = tested on: PrEC primary prostate epithelial cell cultures; test: Histone-associated DNA fragmentation in normal prostate epithelial cells; format: cell-based; conditions: 50 μM, up to 4 days
Experimental: The androgen-sensitive prostate tumor cell line, LNCaP (from ATCC (Rockville, Md.)) was propagated under standard conditions using […] medium containing 5% fetal calve serum and 2 mM glutamine. Primary prostate epithelial cell cultures (PrEC) derived from normal prostate (from Clonetics Inc. (San Diego, Calif.)) were grown under the same conditions as the tumor cell line except a serum-free medium optimized for the growth of such cultures was used (Clonetics Inc). For the experiments, LNCaP or PrEC cells were seeded in 96 well plates at a density of 10,000 cells per well. After 24 hours, the cells were treated with either vehicle (0.1% DMSO) or 50 μM Compound I (free base) solubilized in DMSO. After various drug treatment times (4, 24, 48, 72, or 99 hours) the cells were lysed and processed for measurement of histone-associated DNA as an indicator of apoptotic cell death (see, Piazza et al., Cancer Research 57: 2452-2459, 1997).

[9] = Acute toxicity study in rats; format: in vivo
[10] = Seven-day dose-range finding study in rats; format: in vivo
[11] = in vivo
[12] = tested on: PKG activity in HCT116 colon cancer cells; test: PKG assay on lysates of drug-treated HCT116 cells; format: cell-based
Excerpt: To test the effect of cGMP-specific PDE inhibition on neoplasia containing the β-catenin mutation, HCT116 colon cancer cells were employed. HCT116 is known to contain the β-catenin mutation, but is known not to contain the APC mutation.
The same procedure is used to grow the HCT116 cells as is used in the SW480 procedure described above. In this experiment, only exisulind and controls were used.

[13] = tested on: β-catenin and PKG in SW480 cells; test: Western blot of β-catenin and PKG in SW480 cells; format: cell-based, human; conditions: SW480, 48 hours
Experimental: SW480 cells treated with exisulind as described previously are harvested from the microfuge tubes by rinsing once with ice-cold PBS. The cells are lysed by modified RIPA buffer for 15 minutes with agitation. The cell lysate is spun down in a cold room. The supernatants are transferred to fresh microcentrifuge tubes immediately after spinning. BioRad DC Protein Assay (Temecula, Calif.) is performed to determine the protein concentrations in samples. The samples are normalized for protein concentration, as described above.
50 μg of each sample is loaded onto a 10% SDS gel. SDS-PAGE is performed, and the proteins then are transferred to a nitrocellulose membrane. The blotted nitrocellulose membrane is blocked in freshly prepared TBST containing 5% nonfat dry milk for one hour at room temperature with constant agitation.
A goat-anti-PKG primary antibody is diluted to the recommended concentration/dilution in fresh TBST/5% nonfat dry milk. The nitrocellulose membrane is placed in the primary antibody solution and incubated one hour at room temperature with agitation. The nitrocellulose membrane is washed three times for ten minutes each with TBST. […]
This observation was made by culturing SW480 cells with either 200, 400 or 600 μM exisulind or vehicle (0.1% DMSO). […] Immuno-reactive protein can be detected by Western blot. […]

[14] = Side effects of exisulind in patients; format: in vivo
Excerpt: This effect is reversible, and liver enzymes return to normal levels when the administered dose of exisulind returns to the traditionally recommended level or when treatment is discontinued. The most serious side effects of vinca alkaloid derivatives, on the other hand, are myelosuppressions.

T1 sequence (O76074 46-539 limits assumed): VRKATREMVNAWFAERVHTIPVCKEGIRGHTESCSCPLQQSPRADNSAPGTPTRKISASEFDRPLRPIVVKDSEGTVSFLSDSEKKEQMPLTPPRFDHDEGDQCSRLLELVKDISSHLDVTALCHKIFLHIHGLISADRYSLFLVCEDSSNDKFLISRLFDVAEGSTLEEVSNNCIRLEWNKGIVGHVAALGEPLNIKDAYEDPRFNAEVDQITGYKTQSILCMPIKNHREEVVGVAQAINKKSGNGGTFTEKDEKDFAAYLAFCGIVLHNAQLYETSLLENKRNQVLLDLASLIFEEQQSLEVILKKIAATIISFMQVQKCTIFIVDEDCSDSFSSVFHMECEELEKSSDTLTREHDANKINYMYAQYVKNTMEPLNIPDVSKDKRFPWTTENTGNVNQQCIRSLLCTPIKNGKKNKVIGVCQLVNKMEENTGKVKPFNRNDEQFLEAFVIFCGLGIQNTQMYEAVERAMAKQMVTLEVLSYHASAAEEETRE

For O=C(O)C1CCN(c2nc(NCc3ccc4c(c3)OCO4)c3cc(Cl)ccc3n2)CC1 [Compound E4021], the “Competition with cGMP for binding of GST-cGB-PDE5” value [1] was “do not bind to the cGMP binding sites of PDE5” and the “Sensitivity of Peak B cGMP PDE activity” value [2] was “resistant”.

In the case of CC1=C(CC(=O)NCc2ccccc2)c2cc(F)ccc2/C1=C\c1ccncc1.Cl [Compound I, (Z)-5-fluoro-2-methyl-(4-pyridylidene)-3-(N-benzyl)indenylacetamide hydrochloride], the “Histone-associated fragmented DNA” value [3] is reported as “A significant increase in fragmented DNA was detected after 24 hours of treatment; also recorded: time-dependent increase in the amount of histone-associated fragmented DNA”, the “oral LD50” value [4] is reported as “greater than 1000 mg/kg” and the “Toxicity, single dose in capsules” value ([4]; 1000 mg/kg) is reported as “no signs of toxicity”. For the same molecule, the “Drug-related effects, single dose and seven consecutive doses” value ([4]; 1000 mg/kg/day) was “At no time in either dosing phase were any obvious signs of drug-related effects observed”, the “Strength in inhibiting cell growth relative to exisulind” value [5] was 80-100 fold and the “Strength in inhibiting cell growth relative to exisulind” value ([6]; Calu-6) was 80-100 fold. For the same molecule, the “% of control growth” value ([6]; Calu-6, 1-hour exposure, 5 mcg/ml) was 47%, the “Lower concentration required on continuous exposure than 1-hour exposure for same effect” value [6] was 25 fold and the “Effect when combined with vinca alkaloid” value [6] was “additive cytotoxic effect”. The 28-day histopathological evaluation [7] was “traces of follicular cell hypertrophy, increased numbers of mitotic figures (suggestive of possible cell proliferation) in the thyroid gland and mild centrilobular hypertrophy in the liver”, the 28-day liver weights [7] was “statistically significant increase in liver weights” and the 28-day thyroid weights [7] was “statistically significant increases in thyroid weights”. The “DNA fragmentation” value [8] was “did not affect DNA fragmentation for up to 4 days of treatment”, the “intraperitoneal LD50” value [9] was “greater than 1000 mg/kg” and the “oral LD50” value [9] was > 4000 mg/kg. For the same molecule, the “Acute toxicity, single intraperitoneal dose” value ([9]; intraperitoneal, 1000 mg/kg) was “reduced body weight gain, with mesenteric adhesions seen in some animals”, the “Acute toxicity, single oral dose” value ([9]; oral, 4000 mg/kg) was “body weight gains were slightly reduced” and the “Acute toxicity, single oral doses” value ([9]; oral, up to and including 2000 mg/kg) was “no observable signs of toxicity”. For the same molecule, the Seven-day toxicity findings ([10]; 50 mg/kg/day) was “no observable signs of toxicity”, the Seven-day toxicity findings ([10]; 500 mg/kg/day) was “treatment-related effects were limited to an increase in absolute and relative liver weights in female rats” and the Seven-day toxicity findings ([10]; 2000 mg/kg/day) was “labored breathing and/or abnormal respiratory sounds, decreased weights gains and food consumption in male rats, and increased liver weights in female rats”. For the same molecule, the “Seven-day hematology, blood chemistry, microscopic pathology” value ([10]; any dose level) was “No hematological or blood chemistry changes nor any microscopic pathology changes” and the “Safety” value [11] was “safe in animal studies and in a single, escalating dose human study”.

In the case of CC1=C(CC(=O)O)c2cc(F)ccc2/C1=C\c1ccc(S(C)(=O)=O)cc1 [Exisulind, 5-fluoro-2-methyl-1-(p-methylsulfonylbenzylidene)-3-indenylacetic acid], the “PKG activation relative to control” value [12] is reported as “yielded PKG that was phosphorylated to a greater extent than the corresponding controls”, the “Lower concentration required on continuous exposure than 1-hour exposure for same effect” value [6] is reported as ~10 fold and the activity at 400 µg/mL ([6]; Homo sapiens, Calu-6, 1 h, Calu-6, 1-hour exposure, 400 μg/ml, read-out: % of control growth) is reported as 54%. For the same molecule, the “Effect when combined with vinca alkaloid” value [6] was “additive cytotoxic effect”, the “β-catenin and PKG levels by Western blot” value [13] was “causes the drop of β-catenin and the increase of PKG” and the “Competition with cGMP for binding of GST-cGB-PDE5” value [1] was “do not bind to the cGMP binding sites of PDE5”. The “Side effects at recommended dose” value ([14]; 300-600 mg/day) was “no significant side effects” and the “Side effects above recommended dose” value ([14]; doses higher than the recommended therapeutic levels, reversible) was “can lead to elevated levels of liver enzymes”.
